Patent US6562355B1, “Comixture of dextran sulfate/escin for treating skin redness/edema and/or sensitive skin” (Societe L'Oreal S.A., priority 1999, dated 2003)
Values joined by “and” are separate entries in the source; they are usually repeats but may differ in a detail not shown here. Equal entries are not always repeated.

Tests used:
[1] = solutions of pH ranging from 4 to 10 at room temperature; cited from earlier work
[2] = test system: fragments of normal human skin kept alive (eyelid); experiment: Anti-edema and vasodilation-inhibitory effect in human skin kept alive after induction with substance P/TNFα/arachidonic acid (cocktail A); semi-quantitative histological scores; assay type: cell-based; conditions: skin + cocktail A (5 μM substance P, arachidonic acid 40 mg/ml, TNFα 50 ng/ml) 2 hours, 37° C., topical, escin 0.075%, dextran sulfate 0.20%, 3 donors; for Vasodilation (histological score of dilation of the capillaries): score 0 (no dilation) to 4 (very large dilation), cocktail A alone 2.2, control skin 0.37; for Edema (histological score): score 0 (no edema) to 4 (very considerable edema), cocktail A alone 2.8, control skin 0.62
Source text: The goal of this study was to visualize the anti-edema effect and the vasodilation-inhibitory effect of intimate admixture of dextran sulfate and escin, in a model of skin kept alive (eyelid) after the induction of edema and vasodilation by a neuromediator (substance P)/α-type tumor necrosis factor (TNFα)/arachidonic acid combination.
Fragments of normal human skin from 3 different donors (plastic surgery), mechanically freed of the subcutaneous fat and the inner layer of the dermis, were each placed on a culture insert consisting of a porous membrane (pores 12 μm in diameter) (Costar), the dermal portion of the skin fragment being placed in contact with the porous membrane. The assembly thus prepared was positioned over the wells of a Costar brand 12-well culture plate and maintained for 24 hours at 37° C. in an incubator under a humidified atmosphere containing 5% CO2.
DMEM culture medium (Gibco-BRL) containing 100 U/ml of penicillin and 100 μg/ml of streptomycin, 200 μg/ml of L-glutamine and 0. 1% fetal calf serum (D.A.P., France), was added to the bottom of the wells such that the liquid reached the porous membrane without passing it. Thus mounted, the skin was in contact via its lower face surface through the porous membrane with the culture medium, transport taking place by slow diffusion between the two compartments.
The edema and the vasodilation were produced experimentally by placing on the surface of the skin a mixture in a culture medium consisting of 25 μl of a neuromediator (5 μM substance P), arachidonic acid (25 μl of a solution at a concentration of 40 mg/ml in glycerol) and TNFα (50 ng/ml), hereinafter referred to as “cocktail A”. These substances were maintained in contact with the skin for 2 hours.
The test products were applied topically onto the skin fragments during the induction of the edema and the vasodilation.
The escin, at a final concentration of 0.075%, was dissolved in water.
The dextran sulfate, at a final concentration of 0.20%, was dissolved in propylene glycol.
The temperature was maintained at 37° C. throughout the test period.
The histological analyses were carried out according to the conventional techniques known to this art, without modification of the protocols.
After treatment, the skin fragments were removed and fixed in Bouin liquid and included in paraffin for the histological analyses.
After staining with hemalun-eosin, the two (2) criteria, edema and dilation of the capillaries, were evaluated by means of semi-quantitative histological scores.
The histological evaluation was carried out in the superficial dermis and in the top part of the middle dermis on the same number of fields four (4) fields at 10× magnification). […]

[3] = cited from earlier work

Substance | stability in solutions [1] | Vasodilation (histological score of dilation of the capillaries) [2] | Edema (histological score) [2] | solubility in water and saline solutions [3]
dextran sulfate | high | 1.8 and 1.8 ± 1.04 | 2.1 and 2.1 ± 1.04 | good
escin [reference compound] | – | 1.5 and 1.5 ± 0.5 | 1.16 and 1.16 ± 0.77 | –
